Laboratory results as given in publication PMC5218480 (PLoS ONE, 2017).

Tested on: MV-4-11 cells
Assay: Gene expression microarray analysis (Affymetrix PrimeView) and GSEA
Format: cell-based, human
Set-up: RFU PODN (11730768_x_at) / Fold change /veh PODN (11730768_x_at) / RFU LINC00158 (11744669_a_at) / Fold change /veh LINC00158 (11744669_a_at) / RFU DUSP10 (11751237_a_at) / Fold change /veh DUSP10 (11751237_a_at) / RFU ID3 (11757404_x_at) / Fold change /veh ID3 (11757404_x_at) / RFU PLEKHG5 (11737974_s_at) / Fold change /veh PLEKHG5 (11737974_s_at) / RFU LRRC4B (11730491_at) / Fold change /veh LRRC4B (11730491_at) / RFU GIMAP4 (11747438_a_at) / Fold change /veh GIMAP4 (11747438_a_at) / RFU KRT8 (11758183_x_at) / Fold change /veh KRT8 (11758183_x_at) / RFU CNN1 (11734310_a_at) / Fold change /veh CNN1 (11734310_a_at) / RFU VPS37D (11726825_at) / Fold change /veh VPS37D (11726825_at) / RFU C10orf10 (11716522_x_at) / Fold change /veh C10orf10 (11716522_x_at) / RFU KIR2DL2 /// KIR2DL4 /// KIR2DL5A /// KIR2DL5B /// KIR2DS1 /// KIR2DS2 /// KIR2DS3 /// KIR2DS4 /// KIR3DL3 /// KIR3DL3 /// KIR3DS1 (11738374_at) / Fold change /veh KIR2DL2 /// KIR2DL4 /// KIR2DL5A /// KIR2DL5B /// KIR2DS1 /// KIR2DS2 /// KIR2DS3 /// KIR2DS4 /// KIR3DL3 /// KIR3DL3 /// KIR3DS1 (11738374_at) / RFU C1QL1 (11718748_at) / Fold change /veh C1QL1 (11718748_at) / RFU TMPRSS4 (11747572_a_at) / Fold change /veh TMPRSS4 (11747572_a_at) / RFU HAMP (11756126_x_at) / Fold change /veh HAMP (11756126_x_at) / RFU RNFT2 (11725882_a_at) / Fold change /veh RNFT2 (11725882_a_at) / RFU NR4A2 (11747474_a_at) / Fold change /veh NR4A2 (11747474_a_at) / RFU ABCC12 (11746883_a_at) / Fold change /veh ABCC12 (11746883_a_at) / RFU TMEM136 (11760407_x_at) / Fold change /veh TMEM136 (11760407_x_at) / RFU CLDN22 /// WWC2 (11732394_at) / Fold change /veh CLDN22 /// WWC2 (11732394_at) / RFU HLA-DPB1 (11760878_x_at) / Fold change /veh HLA-DPB1 (11760878_x_at) / RFU SPINT1 (11716480_a_at) / Fold change /veh SPINT1 (11716480_a_at) / RFU GAP43 (11754022_s_at) / Fold change /veh GAP43 (11754022_s_at) / RFU A4GNT (11735810_at) / Fold change /veh A4GNT (11735810_at) / RFU PRB3 (11715151_x_at) / Fold change /veh PRB3 (11715151_x_at) / RFU TUBB4B (11761932_at) / Fold change /veh TUBB4B (11761932_at) / RFU CAPN14 (11732068_a_at) / Fold change /veh CAPN14 (11732068_a_at) / RFU TMCC2 (11721928_a_at) / Fold change /veh TMCC2 (11721928_a_at) / RFU IRGQ (11745062_a_at) / Fold change /veh IRGQ (11745062_a_at) / RFU FAM174B (11720279_a_at) / Fold change /veh FAM174B (11720279_a_at) / RFU TMPRSS4 (11748680_a_at) / Fold change /veh TMPRSS4 (11748680_a_at) / RFU FAM212B (11763350_a_at) / Fold change /veh FAM212B (11763350_a_at) / RFU PLEKHG5 (11743358_a_at) / Fold change /veh PLEKHG5 (11743358_a_at) / RFU ZSCAN30 (11745921_a_at) / Fold change /veh ZSCAN30 (11745921_a_at) / RFU CMKLR1 (11741424_a_at) / Fold change /veh CMKLR1 (11741424_a_at) / RFU LOC101060620 /// MAPK8IP1 (11723275_at) / Fold change /veh LOC101060620 /// MAPK8IP1 (11723275_at) / RFU SPTSSB (11747773_x_at) / Fold change /veh SPTSSB (11747773_x_at) / RFU PRSS12 (11739890_at) / Fold change /veh PRSS12 (11739890_at) / RFU BIN1 (11741810_x_at) / Fold change /veh BIN1 (11741810_x_at) / RFU WNT11 (11732464_a_at) / Fold change /veh WNT11 (11732464_a_at) / RFU C10orf10 (11716521_a_at) / Fold change /veh C10orf10 (11716521_a_at) / RFU C5orf56 (11738089_at) / Fold change /veh C5orf56 (11738089_at) / RFU CYB561 (11721691_x_at) / Fold change /veh CYB561 (11721691_x_at) / RFU ANKRD19P (11752326_a_at) / Fold change /veh ANKRD19P (11752326_a_at) / RFU OR2T12 /// OR2T33 /// OR2T8 (11738714_s_at) / Fold change /veh OR2T12 /// OR2T33 /// OR2T8 (11738714_s_at) / RFU VCAN (11748164_a_at) / Fold change /veh VCAN (11748164_a_at) / RFU JSRP1 (11732532_at) / Fold change /veh JSRP1 (11732532_at) / RFU KRTAP10-11 (11738290_x_at) / Fold change /veh KRTAP10-11 (11738290_x_at) / RFU MYO3A (11730013_a_at) / Fold change /veh MYO3A (11730013_a_at) / RFU EBF3 (11725865_a_at) / Fold change /veh EBF3 (11725865_a_at) / RFU CAMK2N1 (11719241_x_at) / Fold change /veh CAMK2N1 (11719241_x_at) / RFU C5orf56 (11738088_a_at) / Fold change /veh C5orf56 (11738088_a_at) / RFU OLFML3 (11715873_a_at) / Fold change /veh OLFML3 (11715873_a_at) / RFU LOC100653217 /// NTM (11731650_a_at) / Fold change /veh LOC100653217 /// NTM (11731650_a_at) / RFU MAPK11 (11762145_a_at) / Fold change /veh MAPK11 (11762145_a_at) / RFU FIZ1 (11724087_x_at) / Fold change /veh FIZ1 (11724087_x_at) / RFU OASL (11726364_x_at) / Fold change /veh OASL (11726364_x_at) / RFU SOX15 (11748057_x_at) / Fold change /veh SOX15 (11748057_x_at) / RFU CD79A (11719716_a_at) / Fold change /veh CD79A (11719716_a_at) / RFU HIST1H1D (11736915_at) / Fold change /veh HIST1H1D (11736915_at) / RFU CASKIN2 (11723855_a_at) / Fold change /veh CASKIN2 (11723855_a_at) / RFU LOC730098 (11760151_x_at) / Fold change /veh LOC730098 (11760151_x_at) / RFU OR4N2 (11742367_at) / Fold change /veh OR4N2 (11742367_at) / RFU PRRT2 (11749266_a_at) / Fold change /veh PRRT2 (11749266_a_at) / RFU SNX32 (11753110_a_at) / Fold change /veh SNX32 (11753110_a_at) / RFU CDHR5 (11726645_a_at) / Fold change /veh CDHR5 (11726645_a_at) / RFU RCAN1 (11760418_a_at) / Fold change /veh RCAN1 (11760418_a_at) / RFU FAM167A (11723789_a_at) / Fold change /veh FAM167A (11723789_a_at) / RFU FAM26E (11764081_at) / Fold change /veh FAM26E (11764081_at) / RFU ISYNA1 (11749810_s_at) / Fold change /veh ISYNA1 (11749810_s_at) / RFU ACY1 (11761880_at) / Fold change /veh ACY1 (11761880_at) / RFU 11764098_at / Fold change /veh 11764098_at / RFU SAMD14 (11745864_x_at) / Fold change /veh SAMD14 (11745864_x_at) / RFU NPB (11741838_a_at) / Fold change /veh NPB (11741838_a_at) / RFU TMPRSS6 (11731388_a_at) / Fold change /veh TMPRSS6 (11731388_a_at) / RFU KRTAP10-2 (11738614_at) / Fold change /veh KRTAP10-2 (11738614_at) / RFU ARHGAP8 /// PRR5-ARHGAP8 (11727945_x_at) / Fold change /veh ARHGAP8 /// PRR5-ARHGAP8 (11727945_x_at) / RFU KRTAP5-7 /// NADSYN1 (11734609_at) / Fold change /veh KRTAP5-7 /// NADSYN1 (11734609_at) / RFU RASL12 (11751679_a_at) / Fold change /veh RASL12 (11751679_a_at) / RFU CDKN2B (11736163_a_at) / Fold change /veh CDKN2B (11736163_a_at) / RFU PRF1 (11729649_at) / Fold change /veh PRF1 (11729649_at) / RFU, ZNF638 /// ZNF638-IT1 / Fold change vs veh, ZNF638 /// ZNF638-IT1 / RFU, PANK3 / Fold change vs veh, PANK3 / RFU, SH3YL1 / Fold change vs veh, SH3YL1 / RFU, ZEB2 / Fold change vs veh, ZEB2 / RFU, NRIP1 / Fold change vs veh, NRIP1 / RFU, PTTG1IP / Fold change vs veh, PTTG1IP / RFU, CAPN2 / Fold change vs veh, CAPN2 / RFU, MED14 / Fold change vs veh, MED14 / RFU, SNORA58 / Fold change vs veh, SNORA58 / RFU, C1orf63 / Fold change vs veh, C1orf63 / RFU, LRRFIP1 / Fold change vs veh, LRRFIP1 / RFU, NDUFAF7 / Fold change vs veh, NDUFAF7 / RFU, SLC12A2 / Fold change vs veh, SLC12A2 / RFU, IBTK / Fold change vs veh, IBTK / RFU, ESF1 / Fold change vs veh, ESF1 / Fold change vs veh, TMEM50B / RFU, TAOK1 / Fold change vs veh, TAOK1 / RFU, ACBD3 / Fold change vs veh, ACBD3 / RFU, TMA16 / Fold change vs veh, TMA16 / RFU, RWDD3 / Fold change vs veh, RWDD3 / RFU, BCAT1 / Fold change vs veh, BCAT1 / RFU, EDEM3 / Fold change vs veh, EDEM3 / RFU, TMEM33 / Fold change vs veh, TMEM33 / RFU, WDR75 / Fold change vs veh, WDR75 / RFU, AHCTF1 / Fold change vs veh, AHCTF1 / RFU, TFRC / Fold change vs veh, TFRC / RFU, ZDHHC17 / Fold change vs veh, ZDHHC17 / RFU, NOM1 / Fold change vs veh, NOM1 / RFU, ARL8B / Fold change vs veh, ARL8B / RFU, ZBTB11 / Fold change vs veh, ZBTB11 / RFU, TAMM41 / Fold change vs veh, TAMM41 / RFU, KIAA1704 /// LOC100996395 / Fold change vs veh, KIAA1704 /// LOC100996395 / RFU, ING1 / Fold change vs veh, ING1 / RFU, TRMT61B / Fold change vs veh, TRMT61B / RFU, FUBP3 / Fold change vs veh, FUBP3 / RFU, TP53 / Fold change vs veh, TP53 / RFU, TNKS2 / Fold change vs veh, TNKS2 / RFU, ZFP14 / Fold change vs veh, ZFP14 / RFU, ACTR2 / Fold change vs veh, ACTR2 / RFU, PPP3R1 / Fold change vs veh, PPP3R1 / RFU, PIK3R1 / Fold change vs veh, PIK3R1 / RFU, HNRNPA1 / Fold change vs veh, HNRNPA1 / RFU, RNF170 / Fold change vs veh, RNF170 / RFU, ZNF28 / Fold change vs veh, ZNF28 / RFU, RNGTT / Fold change vs veh, RNGTT / RFU, OGT / Fold change vs veh, OGT / RFU, BRD1 / Fold change vs veh, BRD1 / RFU, MARS / Fold change vs veh, MARS / RFU, ZNF655 / Fold change vs veh, ZNF655 / RFU, FAHD1 / Fold change vs veh, FAHD1 / RFU, BDP1 / Fold change vs veh, BDP1 / RFU, LRRCC1 / Fold change vs veh, LRRCC1 / RFU, ARID1A / Fold change vs veh, ARID1A / RFU, ZNF146 / Fold change vs veh, ZNF146 / RFU, ZNF330 / Fold change vs veh, ZNF330 / RFU, GPN3 / Fold change vs veh, GPN3 / RFU, C9orf123 / Fold change vs veh, C9orf123 / RFU, N4BP2L2 / Fold change vs veh, N4BP2L2 / RFU, ARFIP1 / Fold change vs veh, ARFIP1 / RFU, FAM179B / Fold change vs veh, FAM179B / RFU, BCL10 / Fold change vs veh, BCL10 / RFU, UHRF1BP1L / Fold change vs veh, UHRF1BP1L / RFU, BET1 / Fold change vs veh, BET1 / RFU, CNOT2 / Fold change vs veh, CNOT2 / RFU, ZNF268 / Fold change vs veh, ZNF268 / Fold change vs veh, ZNF507 / RFU, DGCR2 / Fold change vs veh, DGCR2 / RFU, WDSUB1 / Fold change vs veh, WDSUB1 / Fold change vs veh, HSP90B1 /// MIR3652 / RFU, ADSS / Fold change vs veh, ADSS / RFU, GK / Fold change vs veh, GK / RFU, ZNF148 / Fold change vs veh, ZNF148 / RFU, TAF9 / Fold change vs veh, TAF9 / RFU, SLC1A5 / Fold change vs veh, SLC1A5 / RFU, SLMO2 / Fold change vs veh, SLMO2 / RFU, ABCC4 / Fold change vs veh, ABCC4 / RFU, LOC101060439 /// RAP1B / Fold change vs veh, LOC101060439 /// RAP1B / RFU, RFX7 / Fold change vs veh, RFX7 / RFU, GTPBP10 / Fold change vs veh, GTPBP10 / RFU, CNEP1R1 / Fold change vs veh, CNEP1R1 / RFU, BIVM-ERCC5 /// ERCC5 / Fold change vs veh, BIVM-ERCC5 /// ERCC5 / RFU, ILF3 / Fold change vs veh, ILF3 / RFU 11762660_at / Fold change /veh 11762660_at / RFU VCAN (11757783_s_at) / Fold change /veh VCAN (11757783_s_at) / RFU DDX43 (11728927_at) / Fold change /veh DDX43 (11728927_at) / RFU KRT8 (11758188_x_at) / Fold change /veh KRT8 (11758188_x_at) / RFU NKD1 (11759106_at) / Fold change /veh NKD1 (11759106_at) / RFU SRD5A1 (11742802_a_at) / Fold change /veh SRD5A1 (11742802_a_at) / RFU TPSAB1 /// TPSB2 (11721975_s_at) / Fold change /veh TPSAB1 /// TPSB2 (11721975_s_at) / RFU GSTM3 (11746129_a_at) / Fold change /veh GSTM3 (11746129_a_at) / RFU IL23R (11737362_x_at) / Fold change /veh IL23R (11737362_x_at) / RFU TMEM51 (11727254_a_at) / Fold change /veh TMEM51 (11727254_a_at) / RFU PIWIL2 (11732686_x_at) / Fold change /veh PIWIL2 (11732686_x_at) / RFU ORM1 (11744905_x_at) / Fold change /veh ORM1 (11744905_x_at) / RFU CCDC152 (11743942_at) / Fold change /veh CCDC152 (11743942_at) / RFU ECM1 (11717891_a_at) / Fold change /veh ECM1 (11717891_a_at) / RFU IL23R (11748794_a_at) / Fold change /veh IL23R (11748794_a_at) / RFU TNFAIP8L3 (11732012_x_at) / Fold change /veh TNFAIP8L3 (11732012_x_at) / RFU MBOAT4 (11741988_at) / Fold change /veh MBOAT4 (11741988_at) / RFU 11764193_at / Fold change /veh 11764193_at / RFU TMEM53 (11763286_at) / Fold change /veh TMEM53 (11763286_at) / RFU MAGEB2 (11727129_at) / Fold change /veh MAGEB2 (11727129_at) / RFU TMEM200A (11744735_a_at) / Fold change /veh TMEM200A (11744735_a_at) / RFU CCDC152 (11751479_a_at) / Fold change /veh CCDC152 (11751479_a_at) / RFU FAM211A (11726209_a_at) / Fold change /veh FAM211A (11726209_a_at) / RFU RGS16 (11746705_a_at) / Fold change /veh RGS16 (11746705_a_at) / RFU VCAN (11755009_s_at) / Fold change /veh VCAN (11755009_s_at) / RFU RHOB (11743442_s_at) / Fold change /veh RHOB (11743442_s_at) / RFU RGS16 (11720943_a_at) / Fold change /veh RGS16 (11720943_a_at) / RFU RGS16 (11720944_at) / Fold change /veh RGS16 (11720944_at) / RFU, VPS4B / Fold change vs veh, VPS4B / RFU, CREB1 / Fold change vs veh, CREB1 / RFU, DNAJC13 / Fold change vs veh, DNAJC13 / RFU, GNAQ / Fold change vs veh, GNAQ / RFU, CDK5R1 / Fold change vs veh, CDK5R1 / RFU, ZRANB3 / Fold change vs veh, ZRANB3 / RFU, CUL4A / Fold change vs veh, CUL4A / RFU, CCNY / Fold change vs veh, CCNY / RFU, UFL1 / Fold change vs veh, UFL1 / RFU, COG3 / Fold change vs veh, COG3 / RFU, DIAPH2 / Fold change vs veh, DIAPH2 / RFU, SKA2 / Fold change vs veh, SKA2 / RFU, AFF3 / Fold change vs veh, AFF3 / RFU, LMF1 / Fold change vs veh, LMF1 / RFU, IPO11 / Fold change vs veh, IPO11 / RFU, DFFB / Fold change vs veh, DFFB / RFU, FOXP1 / Fold change vs veh, FOXP1 / RFU, CARD8 / Fold change vs veh, CARD8 / RFU, STRN3 / Fold change vs veh, STRN3 / RFU, ADK / Fold change vs veh, ADK / RFU, RASSF2 / Fold change vs veh, RASSF2 / RFU, WIPF1 / Fold change vs veh, WIPF1 / RFU, LARP1B / Fold change vs veh, LARP1B / RFU, RASA1 / Fold change vs veh, RASA1 / RFU, RB1 / Fold change vs veh, RB1 / RFU, PPFIA1 / Fold change vs veh, PPFIA1 / RFU, MAT2A / Fold change vs veh, MAT2A / RFU, CCT5 / Fold change vs veh, CCT5 / RFU, WDR92 / Fold change vs veh, WDR92 / RFU, CUX1 / Fold change vs veh, CUX1 / RFU, TTC7A / Fold change vs veh, TTC7A / RFU, TMEM135 / Fold change vs veh, TMEM135 / RFU, DEPTOR / Fold change vs veh, DEPTOR / RFU, CPM / Fold change vs veh, CPM / RFU, DNAJB6 / Fold change vs veh, DNAJB6 / RFU, CACNA2D3 / Fold change vs veh, CACNA2D3 / RFU, DTX4 / Fold change vs veh, DTX4 / RFU, TFCP2 / Fold change vs veh, TFCP2 / RFU, GMCL1 /// GMCL1P1 / Fold change vs veh, GMCL1 /// GMCL1P1 / RFU, AEBP2 / Fold change vs veh, AEBP2 / RFU, SNHG1 /// SNORD22 /// SNORD25 /// SNORD26 /// SNORD27 /// SNORD28 /// SNORD29 /// SNORD31 / Fold change vs veh, SNHG1 /// SNORD22 /// SNORD25 /// SNORD26 /// SNORD27 /// SNORD28 /// SNORD29 /// SNORD31 / Fold change (Aza/veh), C12orf56 (ProbeSet 11735607_a_at) / Fold change (ACY-1035/veh), C12orf56 (ProbeSet 11735607_a_at) / Fold change (Aza/veh), FGFR1OP (ProbeSet 11751329_s_at) / Fold change (ACY-1035/veh), FGFR1OP (ProbeSet 11751329_s_at) / Fold change (Aza/veh), VPS36 (ProbeSet 11739960_a_at) / Fold change (ACY-1035/veh), VPS36 (ProbeSet 11739960_a_at) / RFU SYPL1 (11715823_x_at) / Fold change /veh SYPL1 (11715823_x_at) / RFU IGFBP7 (11715501_s_at) / Fold change /veh IGFBP7 (11715501_s_at) / RFU REEP3 (11722064_at) / Fold change /veh REEP3 (11722064_at) / RFU IGLL1 (11728026_x_at) / Fold change /veh IGLL1 (11728026_x_at): dose or concentration left out as unconfirmed
Conditions: MV-4-11 cells, 48 hours

SMILES: Nc1ncn([C@@H]2O[C@H](CO)[C@@H](O)[C@H]2O)c(=O)n1 [azacitidine]
- RFU BIN1 (11741810_x_at): 29.77 RFU
